Source: patent publication US20240002332A1, “Small Molecule Inhibitors of SARS-CoV-2 Infections” (priority 2020, published 2024)
Where “and” joins values, the source holds several entries; their conditions need not be identical. Identical values can stand only once. Like-named read-outs stand apart in the source and are kept apart here.

Legend:
[1] = test system: SARS CoV-2 (USA_WA1/2020); test: Cytopathic effect (CPE) assay; format: cell-based; details: Severe acute respiratory syndrome coronavirus 2, Vero C1008, 72 h
Vero-E6 = test: Cytotoxicity counter screen (cell viability, CellTiter-Glo); format: cell-based
Experimental: Compound cytotoxicity was assessed in a BSL-2 counter screen as follows: Cell culture media (MEM, 1% Pen/Strep/GlutaMax, 1% HEPES, 2% HI FBS) was dispensed at 5 μl/well into ARPs and incubated at room temperature to allow for compound dissolution. Vero-E6 (selected for high ACE2 expression) was dispensed into assay plates at 4000 cells/well in 25 μl media. Assay plates were incubated for 72 h at 37 C, 5% CO2, 90% humidity. Then, 30 μl/well of CellTiter-Glo (Promega #G7573) was dispensed into the assay plate. Luminescence was read using a BMG PHERAstar plate reader following incubation at room temperature for 10 min to measure cell viability.

in vivo = details: C57BL/6, mouse, po, C57BL/6 mice; for AUC(0-inf): AUCInf; for AUC(0-inf) / AUC(0-t) / Cmax / Tmax: Compound P3 in plasma; for AUC(0-t): AUClast; for half-life: t1/2, Compound P3 in plasma
[2] = Kinetic solubility (Tier I ADME); details: kinetic from dmso stock
[3] = Rat liver microsomal (RLM) stability; details: rat, microsomes
SARS-CoV-2 = details: EIDD-2801 250 mpk BID; Compound P3 60 mpk BID
Text: EIDD-2801 (molnupiravir) was chosen as the positive control at 250 mpk BID oral dose.

[4] = Parallel artificial membrane permeability assay (PAMPA); details: PAMPA, pH 5
[5] = Tolerability study in mice, 7 days QD, PK on the 7th day; details: 25, 50 and 100 mg/kg PO QD 7 days, C57BL/6J mice
[6] = Pharmacokinetics in mice IV 3 and PO 10 mg/kg; plasma, lung and liver; details: for Kp: AUC ratio (tissue/plasma)
[7] = Compound P3 in plasma, PO 50 mg/kg (PO_A), C57BL/6 mice, individual mice, 50 mg/kg
[8] = Compound P3 in plasma, PO 100 mg/kg (PO_B), C57BL/6 mice, individual mice, 100 mg/kg
[9] = 50 mg/kg, PO 50 mg/kg (PO_A), Mean n = 3
[10] = 50 mg/kg, PO 50 mg/kg (PO_A), individual mice
[11] = 100 mg/kg, PO 100 mg/kg (PO_B), Mean n = 3
[12] = 100 mg/kg, PO 100 mg/kg (PO_B), individual mice
[13] = mice, Compound P3 dosed PO 10 mg/kg, Liver
[14] = mice, Compound P3 dosed PO 10 mg/kg, Lung
[15] = mice, Compound P3 dosed PO 10 mg/kg, Plasma
[16] = mouse Plasma, Compound P3 dosed IV 3 mg/kg
[17] = mouse Plasma, Compound P3 dosed PO 10 mg/kg

For `O=C(Nc1ccc([N+](=O)[O-])cc1Cl)c1cc(Cl)ccc1OC(=O)N1CCNCC1` [Compound P3, 4-chloro-2-((2-chloro-4-nitrophenyl)carbamoyl)phenyl piperazine-1-carboxylate], the IC50 [1] was 4.05 µM, the Emax ([1]; read-out: Efficacy CPE assay) was 40.7% and the IC50 (Vero-E6; Chlorocebus sabaeus, Vero C1008, 72 h, read-out: IC50 (μM) cell viability) was 7.21 µM. The Efficacy cell viability (Vero-E6; uninfected Vero-E6, 72 h, CellTiter-Glo) was −99.8, the “AUC_% Extrap” value (Compound P3 in plasma, PO 50 mg/kg (PO_A), C57BL/6 mice, Mean n = 3) was 33.5% and the AUClast [7] was 12332 ng·h/mL and 10489 ng·h/mL. For the same molecule, the Cmax [7] was 1920 ng/mL and 1560 ng/mL, the Tmax [7] was 0.500 h and the t1/2 [7] was 3.70 h. The “AUC_% Extrap” value (Compound P3 in plasma, PO 100 mg/kg (PO_B), C57BL/6 mice, Mean n = 3) was 28.2%, the AUCInf [8] was 33619 ng·h/mL and 24577 ng·h/mL and 56087 ng·h/mL and the “AUC_% Extrap” value [8] was 22.7% and 23.7% and 38.3%. For the same molecule, the AUClast [8] was 18757 ng·h/mL and 34617 ng·h/mL, the Cmax [8] was 2340 ng/mL and 3880 ng/mL and the t1/2 [8] was 13.8 h and 19.8 h. The “in vivo conversion to niclosamide” value (Compound P3 oral, mice) was “effectively converted in vivo to the active niclosamide”, the “plasma exposure of niclosamide vs that reported for oral niclosamide” value (oral Compound P3, mice) was “much improved plasma exposures of niclosamide” and the AUC(0-inf) (in vivo; [9]) was 88700 ng·h/mL. It also gave an AUC(0-t) (in vivo; [9]) of 9730 ng·h/mL, an AUC(0-t) (in vivo; [10]) of 6360 ng·h/mL and a Cmax (in vivo; [9]) of 1460 ng/mL. It also gave a Cmax (in vivo; [10]) of 1140 ng/mL, a half-life (in vivo; [9]) of 4.14 h and a half-life (in vivo; [10]) of 4.58 h. It also gave a Tmax (in vivo; [9]) of 2 h, an AUC(0-inf) (in vivo; [11]) of 38100 ng·h/mL and an AUC(0-t) (in vivo; [11]) of 26400 ng·h/mL. For the same molecule, the AUC(0-t) (in vivo; [12]) was 26000 ng·h/mL, the Cmax (in vivo; [11]) was 3060 ng/mL and the Cmax (in vivo; [12]) was 2970 ng/mL. It also gave a half-life (in vivo; [11]) of 15.3 h, a half-life (in vivo; [12]) of 12.4 h and a Tmax (in vivo; [11]) of 1 h. For the same molecule, the Tmax (in vivo; [12]) was 1 h, the solubility [2] was over 43 µg/mL and the half-life [3] was over 0.5 h. The “IHC immunoreactivity staining in the right lung” value (SARS-CoV-2) was “lowered in severity”, the Papp [4] was 500 ×10⁻⁶ cm/s and the body weight [5] was “no dose dependent weight loss”. For the same molecule, the tolerability [5] was “tolerable for the study period, with no gross findings”, the clearance ([6]; mice) was “moderate” and the AUC0-INF/D [6, 13] was 65.7 kg·ng·h/mL/mg. The “AUC_% Extrap” value [6, 13] was 0.9%, the Cmax/D [6, 13] was 24 kg·ng/mL/mg and the AUC0-INF/D [6, 14] was 24400 kg·ng·h/mL/mg. For the same molecule, the “AUC_% Extrap” value [6, 14] was 0.2%, the Cmax/D [6, 14] was 4420 kg·ng/mL/mg and the Tmax [6, 14] was 1.5 h. The t1/2 [6, 14] was 2.8 h, the AUC0-INF [6, 15] was 3530 ng·h/mL and the AUC0-INF/D [6, 15] was 353 kg·ng·h/mL/mg. The “AUC_% Extrap” value [6, 15] was 0.5%, the Cmax [6, 15] was 606 ng/mL and the Cmax/D [6, 15] was 60.6 kg·ng/mL/mg. For the same molecule, the AUCINF/D [6, 16] was 426 kg·ng·h/mL/mg, the AUCLast/D [6, 16] was 425 kg·ng·h/mL/mg and the AUC_%Extrap_obs [6, 16] was 0.06%. It also gave a Clast [6, 16] of 0.163 ng/mL, a Cmax/D [6, 16] of 154 kg·ng/mL/mg and a Tlast [6, 16] of 48 h. The AUCINF/D [6, 17] was 353 kg·ng·h/mL/mg, the AUCINF_obs [6, 17] was 3530 ng·h/mL and the AUCLast/D [6, 17] was 351 kg·ng·h/mL/mg. It also gave an AUC_%Extrap_obs [6, 17] of 0.5%, a Clast [6, 17] of 5.23 ng/mL and a Cmax/D [6, 17] of 60.6 kg·ng/mL/mg. It also gave an F [6, 17] of 83%, a Tlast [6, 17] of 30 h and a bioavailability ([6]; mouse, in vivo, 10 mg/kg) of 83%. It also gave a C0 ([6]; mouse, in vivo, iv, 3 mg/kg) of 536 ng/mL, a Tmax ([6]; mouse, in vivo, iv, 3 mg/kg) of 0.083 h and a Vd ([6]; mouse, in vivo, iv, 3 mg/kg) of 8.9 L/kg. It also gave a clearance ([6]; mouse, in vivo, iv, 3 mg/kg) of 39 mL/min/kg, an AUC(0-inf) ([6]; mouse, in vivo, iv, 3 mg/kg, AUCINF_obs, mouse Plasma, Compound P3 dosed IV 3 mg/kg) of 1280 ng·h/mL and an AUC(0-t) ([6]; mouse, in vivo, iv, 3 mg/kg, AUClast, mouse Plasma, Compound P3 dosed IV 3 mg/kg) of 1280 ng·h/mL. For the same molecule, the Cmax ([6]; mouse, in vivo, iv, 3 mg/kg, Cmax, mouse Plasma, Compound P3 dosed IV 3 mg/kg) was 461 ng/mL, the half-life ([6]; mouse, in vivo, iv, 3 mg/kg, t½, mouse Plasma, Compound P3 dosed IV 3 mg/kg) was 3.3 h and the AUC(0-inf) ([6]; mouse, in vivo, po, 10 mg/kg, AUC0-INF, mice, Compound P3 dosed PO 10 mg/kg, Liver) was 657 ng·h/mL. The AUC(0-inf) ([6]; mouse, in vivo, po, 10 mg/kg, AUC0-INF, mice, Compound P3 dosed PO 10 mg/kg, Lung) was 244000 ng·h/mL, the AUC(0-t) ([6]; mouse, in vivo, po, 10 mg/kg, AUC0-last, mice, Compound P3 dosed PO 10 mg/kg, Liver) was 651 ng·h/mL and the AUC(0-t) ([6]; mouse, in vivo, po, 10 mg/kg, AUC0-last, mice, Compound P3 dosed PO 10 mg/kg, Lung) was 244000 ng·h/mL. It also gave an AUC(0-t) ([6]; mouse, in vivo, po, 10 mg/kg, AUC0-last, mice, Compound P3 dosed PO 10 mg/kg, Plasma) of 3510 ng·h/mL, a Kp ([6]; mouse, in vivo, po, 10 mg/kg, mice, Compound P3 dosed PO 10 mg/kg, Liver) of 0.19 and a Kp ([6]; mouse, in vivo, po, 10 mg/kg, mice, Compound P3 dosed PO 10 mg/kg, Lung) of 69. For the same molecule, the AUC(0-t) ([6]; mouse, in vivo, po, 10 mg/kg, AUClast, mouse Plasma, Compound P3 dosed PO 10 mg/kg) was 3510 ng·h/mL, the Cmax ([6]; mouse, in vivo, po, 10 mg/kg, Cmax, mice, Compound P3 dosed PO 10 mg/kg, Liver) was 240 ng/mL and the Cmax ([6]; mouse, in vivo, po, 10 mg/kg, Cmax, mice, Compound P3 dosed PO 10 mg/kg, Lung) was 44200 ng/mL. For the same molecule, the half-life ([6]; mouse, in vivo, po, 10 mg/kg, t1/2, mice, Compound P3 dosed PO 10 mg/kg, Liver) was 4 h, the half-life ([6]; mouse, in vivo, po, 10 mg/kg, t1/2, mice, Compound P3 dosed PO 10 mg/kg, Plasma) was 2.2 h and the half-life ([6]; mouse, in vivo, po, 10 mg/kg, t½, mouse Plasma, Compound P3 dosed PO 10 mg/kg) was 2.2 h.
